{"source": "ChEMBL document CHEMBL6087446", "about": "“Hypoxia Activated Nitric Oxide Donor Compounds for the Prevention and Treatment of Myocardial Hypoxia-Induced Injury” (J Med Chem, 2025)", "key": {"[1]": {"assay": "Induction of NO release in rat H9c2 cells at 10 uM by Griess reagent assay relative to control", "format": "functional"}, "[2]": {"system": "H9c2", "assay": "Induction of NO release in rat H9c2 cells under hypoxia condition at 10 uM by Griess reagent assay relative to control", "format": "functional"}, "[3]": {"system": "H9c2", "assay": "Induction of NO release in rat H9c2 cells under hypoxia condition by Griess reagent assay relative to control", "format": "functional, cell-based"}, "[4]": {"system": "H9c2", "assay": "Induction of NO release in rat H9c2 cells under normoxic condition at 10 uM measured for 4 hrs by Griess reagent assay relative to control", "format": "functional"}, "[5]": {"system": "H9c2", "assay": "Prevention of hypoxia-induced decrease cell viability of rat H9c2 cells at 10 uM by CCK8 assay", "format": "functional, cell-based"}, "[6]": {"system": "H9c2", "assay": "Prevention of hypoxia-induced apoptosis in rat H9c2 cells assessed as decrease in late apoptosis and necrosis by measuring reduced red fluorescence at 10 uM incubated for 4 hrs by confocal microscopy with Annexin V-FITC and propidium iodide (PI) double staining analysis", "format": "functional, cell-based"}, "[7]": {"system": "H9c2", "assay": "Prevention of hypoxia-induced apoptosis in rat H9c2 cells assessed as decrease in early apoptosis by measuring reduced green fluorescence at 10 uM incubated for 4 hrs by confocal microscopy with Annexin V-FITC and propidium iodide (PI) double staining analysis", "format": "functional, cell-based"}, "[8]": {"system": "H9c2", "assay": "Prevention of hypoxia-induced ROS production in rat H9c2 cells at 1 uM measured after 4 hrs incubation by DCFH-DA method", "format": "functional, cell-based"}, "[9]": {"system": "H9c2", "assay": "Prevention of hypoxia-induced ACE expression in rat H9c2 cells assessed as inhibition of ACE overexpression at 10 uM measured after 4 hrs incubation", "format": "functional, cell-based"}, "[10]": {"system": "H9c2", "assay": "Prevention of hypoxia-induced TSC2-P expression in rat H9c2 cells assessed as inhibition of TSC2-P overexpression at 10 uM measured after 4 hrs incubation", "format": "functional, cell-based"}, "[11]": {"system": "Mus musculus", "assay": "Prevention of myocardial hypoxia injury in isoproterenol-induced male C57 mouse myocardial injury model assessed as antihypertrophic effect at 8 mg/kg, ip once daily for 3 consecutive days", "format": "functional, organism-based", "conditions": "time 3.0 day"}, "[12]": {"system": "Mus musculus", "assay": "Prevention of myocardial hypoxia injury in isoproterenol-induced male C57 mouse myocardial injury model assessed as antihypertrophic effect at 16 mg/kg, ip once daily for 3 consecutive days", "format": "functional, organism-based", "conditions": "time 3.0 day"}, "[13]": {"system": "Mus musculus", "assay": "Prevention of myocardial hypoxia injury in isoproterenol-induced male C57 mouse myocardial injury model assessed as heart weight ratio at 16 mg/kg, ip once daily for 3 consecutive days (reference value: 0.60%)", "format": "functional", "conditions": "time 3 day"}, "[14]": {"system": "Mus musculus", "assay": "Prevention of myocardial hypoxia injury in isoproterenol-induced male C57 mouse myocardial injury model assessed as increase in NO level in heart tissue at 8 mg/kg, ip once daily for 3 consecutive days", "format": "functional, organism-based", "conditions": "time 3.0 day"}, "[15]": {"system": "Mus musculus", "assay": "Prevention of myocardial hypoxia injury in isoproterenol-induced male C57 mouse myocardial injury model assessed as increase in NO level in heart tissue at 16 mg/kg, ip once daily for 3 consecutive days", "format": "functional, organism-based", "conditions": "time 3.0 day"}, "[16]": {"system": "Mus musculus", "assay": "Prevention of myocardial hypoxia injury in isoproterenol-induced male C57 mouse myocardial injury model assessed as pathological myocardial change by measuring improvement in disorganized cell arrangement at 8 to 16 mg/kg, ip once daily for 3 consecutive days by hematoxylin and eosin staining based analysis", "format": "functional, organism-based", "conditions": "dose 8-16 mg/kg, time 3.0 day"}, "[17]": {"system": "Mus musculus", "assay": "Prevention of myocardial hypoxia injury in isoproterenol-induced male C57 mouse myocardial injury model assessed as pathological myocardial change by heart sections at 8 to 16 mg/kg, ip once daily for 3 consecutive days by hematoxylin and eosin staining based analysis", "format": "functional, organism-based", "conditions": "dose 8-16 mg/kg, time 3.0 day"}, "[18]": {"system": "Mus musculus", "assay": "Prevention of myocardial hypoxia injury in isoproterenol-induced male C57 mouse myocardial injury model assessed as prevention of lamellar collagen fiber deposition at 8 to 16 mg/kg, ip once daily for 3 consecutive days by Masson staining based analysis", "format": "functional, organism-based", "conditions": "dose 8-16 mg/kg, time 3.0 day"}, "[19]": {"system": "Mus musculus", "assay": "Prevention of myocardial hypoxia injury in isoproterenol-induced male C57 mouse myocardial injury model assessed as prevention of bundle collagen fiber deposition at 8 to 16 mg/kg, ip once daily for 3 consecutive days by Masson staining based analysis", "format": "functional, organism-based", "conditions": "dose 8-16 mg/kg, time 3.0 day"}, "[20]": {"system": "Mus musculus", "assay": "Prevention of myocardial hypoxia injury in isoproterenol-induced male C57 mouse myocardial injury model assessed as decrease in ACE expression at 8 to 16 mg/kg, ip once daily for 3 consecutive days by immunohistochemistry", "format": "functional, organism-based", "conditions": "dose 8-16 mg/kg, time 3.0 day"}, "[21]": {"system": "Mus musculus", "assay": "Prevention of myocardial hypoxia injury in isoproterenol-induced male C57 mouse myocardial injury model assessed as decrease in mTORC1 expression at 8 to 16 mg/kg, ip once daily for 3 consecutive days by immunohistochemistry", "format": "functional, organism-based", "conditions": "dose 8-16 mg/kg, time 3.0 day"}, "[22]": {"system": "Mus musculus", "assay": "Prevention of myocardial hypoxia injury in isoproterenol-induced male C57 mouse myocardial injury model assessed as reduction in creatine kinase (CK) at 8 to 16 mg/kg, ip once daily for 3 consecutive days by immunohistochemistry", "format": "functional, organism-based", "conditions": "dose 8-16 mg/kg, time 3.0 day"}, "[23]": {"system": "Mus musculus", "assay": "Prevention of myocardial hypoxia injury in isoproterenol-induced male C57 mouse myocardial injury model assessed as reduction in cardiac troponin (CK) at 8 to 16 mg/kg, ip once daily for 3 consecutive days by immunohistochemistry", "format": "functional, organism-based", "conditions": "dose 8-16 mg/kg, time 3.0 day"}, "[24]": {"system": "Mus musculus", "assay": "Prevention of myocardial hypoxia injury in isoproterenol-induced male C57 mouse myocardial injury model assessed as reduction in creatine kinase (CK) at 5 mg/kg, ip once daily for 3 consecutive days by immunohistochemistry", "format": "functional, organism-based", "conditions": "time 3.0 day"}, "[25]": {"system": "Mus musculus", "assay": "Prevention of myocardial hypoxia injury in isoproterenol-induced male C57 mouse myocardial injury model assessed as reduction in creatine kinase-MB (CK-MB) at 5 mg/kg, ip once daily for 3 consecutive days by immunohistochemistry", "format": "functional, organism-based", "conditions": "time 3.0 day"}, "[26]": {"assay": "Tmax in female Balb/c mouse at 8 mg/kg, ip measured up to 24 hrs by LC-MS/MS analysis", "format": "ADME, organism-based", "conditions": "in vivo"}, "[27]": {"assay": "Cmax in female Balb/c mouse at 8 mg/kg, ip measured up to 24 hrs by LC-MS/MS analysis", "format": "ADME, organism-based", "conditions": "in vivo"}, "[28]": {"assay": "AUC (0 to last) in female Balb/c at 8 mg/kg, ip mouse measured up to 24 hrs by LC-MS/MS analysis", "format": "ADME, organism-based", "conditions": "in vivo"}, "[29]": {"assay": "Toxicity in isoproterenol-induced male C57 mouse assessed as body weight change at 5 mg/kg, ip once daily for 3 consecutive days", "format": "organism-based", "conditions": "in vivo, 72 h, time 3 day"}, "[30]": {"system": "Mus musculus", "assay": "Prevention of myocardial hypoxia injury in isoproterenol-induced male C57 mouse myocardial injury model assessed as decrease in heart weight ratio at 8 mg/kg, ip once daily for 3 consecutive days (reference value: 0.68%)", "format": "functional", "set-up": "scale not given: the % may be the effect or the level left", "conditions": "time 3 day"}, "[31]": {"system": "Mus musculus", "assay": "Prevention of myocardial hypoxia injury in isoproterenol-induced male C57 mouse myocardial injury model assessed as increase in NO level in myocardial tissue at 8 to 16 mg/kg, ip once daily for 3 consecutive days", "format": "functional, organism-based", "conditions": "dose 8-16 mg/kg, time 3.0 day"}, "[32]": {"system": "Mus musculus", "assay": "Prevention of myocardial hypoxia injury in isoproterenol-induced male C57 mouse myocardial injury model assessed as increase in NO level in myocardial tissue at 8 to 16 mg/kg, IG once daily for 3 consecutive days", "format": "functional, organism-based", "conditions": "dose 8-16 mg/kg, time 3.0 day"}, "[33]": {"system": "Mus musculus", "assay": "Prevention of myocardial hypoxia injury in isoproterenol-induced male C57 mouse myocardial injury model assessed as pathological myocardial change by measuring cellular arrangements at 8 to 16 mg/kg, IG once daily for 3 consecutive days by hematoxylin and eosin staining based analysis", "format": "functional, organism-based", "conditions": "dose 8-16 mg/kg, time 3.0 day"}, "[34]": {"assay": "Toxicity in male C57 mouse assessed as physiological distress at 900 mg/kg, ip measured after 12 hrs of administration", "format": "organism-based", "conditions": "in vivo"}, "[35]": {"assay": "Toxicity in male C57 mouse assessed as mortality at 900 mg/kg, ip measured up to 14 days observation period", "format": "organism-based", "conditions": "in vivo, 336 h, time < 14 day"}, "[36]": {"assay": "Toxicity in male C57 mouse assessed as adverse effect at 900 mg/kg, ip measured up to 14 days observation period", "format": "organism-based", "conditions": "in vivo, 336 h, time < 14 day"}}, "note": "Active and inactive are the calls of the source. No cut-off for these calls is given here."}
{"smiles": "CN(N=O)c1ccc(OCc2ccc([N+](=O)[O-])c(F)c2)cc1", "values": [{"measurement": "Activity", "setting": "[1]", "result": "<5", "unit": "%"}, {"measurement": "Activity", "setting": "[2]", "result": 26.54, "unit": "%"}, {"measurement": "Activity", "setting": "[3]", "result": "Dose-dependent-effect"}, {"measurement": "Activity", "setting": "[4]", "result": 20, "unit": "%"}, {"measurement": "Activity", "setting": "[5]", "result": "Active; Partially Restores Cell Viability"}, {"measurement": "Activity", "setting": "[6]", "result": "Active; Reduced Red Fluorescence To Certain Extents"}, {"measurement": "Activity", "setting": "[7]", "result": "Active; Green Fluorescence Intensity Wes Lower Than Ismn Treated Cells"}, {"measurement": "Activity", "setting": "[8]", "result": "Active"}, {"measurement": "Activity", "setting": "[9]", "result": "Active"}, {"measurement": "Activity", "setting": "[10]", "result": "Active"}, {"measurement": "Activity", "setting": "[11]", "result": "Active"}, {"measurement": "Activity", "setting": "[12]", "result": "Active"}, {"measurement": "Activity", "setting": "[13]", "result": 0.51, "unit": "%"}, {"measurement": "Activity", "setting": "[14]", "result": "Active"}, {"measurement": "Activity", "setting": "[15]", "result": "Active"}, {"measurement": "Activity", "setting": "[16]", "result": "Active"}, {"measurement": "Activity", "setting": "[17]", "result": "Active"}, {"measurement": "Activity", "setting": "[18]", "result": "Active"}, {"measurement": "Activity", "setting": "[19]", "result": "Active"}, {"measurement": "Activity", "setting": "[20]", "result": "Active"}, {"measurement": "Activity", "setting": "[21]", "result": "Active"}, {"measurement": "Activity", "setting": "[22]", "result": "Active"}, {"measurement": "Activity", "setting": "[23]", "result": "Active"}, {"measurement": "Activity", "setting": "[24]", "result": "Active"}, {"measurement": "Activity", "setting": "[25]", "result": "Active"}, {"measurement": "Tmax", "setting": "[26]", "result": 2.08, "unit": "h"}, {"measurement": "Cmax", "setting": "[27]", "result": 450, "unit": "ng/mL"}, {"measurement": "AUC(0-t) at 24 h", "setting": "[28]", "result": 626, "unit": "ng·h/mL"}, {"measurement": "Activity", "setting": "[29]", "result": "Non-toxic"}, {"measurement": "Activity", "setting": "[30]", "result": 0.53, "unit": "%"}, {"measurement": "Activity", "setting": "[31]", "result": "Active"}, {"measurement": "Activity", "setting": "[32]", "result": "Active"}, {"measurement": "Activity", "setting": "[33]", "result": "Active"}, {"measurement": "Activity", "setting": "[34]", "result": "Non-toxic"}, {"measurement": "Activity", "setting": "[35]", "result": "Non-toxic"}, {"measurement": "Activity", "setting": "[36]", "result": "Non-toxic"}]}
